{"source": "patent US6683200B2", "about": "“N-substituted-N′-substituted urea derivatives and pharmaceutical compositions containing the derivatives” (Santen Pharmaceutical Co., Ltd., priority 1999, dated 2004)", "key": {"[1]": {"test_system": "TNF-α production by human monocyte strain THP-1 cells stimulated with LPS", "experiment": "Inhibition of LPS-induced TNF-α production in THP-1 cells (ELISA)", "format": "cell-based", "settings": "compound 10^−5M, THP-1 cells 10^6 cells/ml, LPS 2 μg/ml, 37° C., two hours; for inhibition at 10 µM: Homo sapiens, 2 h, read-out: Rate of Inhibition (%) of TNF-α production", "protocol": "Each candidate compound was inspected for the effect of inhibiting TNF-α production induced by the stimulation with lipopolysaccharide (LPS), by an in vitro test according to the method proposed by McGeehan et al. (Nature, 1994, 370:558-561).\nThe test (assay) was carried out by determining the amount of TNF-α produced by the human monocyte strain THP-1 cells induced by the stimulation with LPS.\nThe culture medium used in this test was RPMI 1640 culture medium supplemented wiTNFetal calf serum (10%), L-glutamine (2 mM), 2-mercaptoethanol (50 μM), penicillin (50 units/ml) and streptomycin (50 μg/ml).\nRegarding the cells, the human monocyte strain THP-1 cells cultivated in the foregoing culture medium were centrifuged at 100 xg for 5 minutes to remove the supernatant and then again suspended in a fresh culture medium prior to the practical use. The LPS used herein was derived from S. Typhimurium and this was dissolved in purified water and then diluted with the culture medium prior to use. Each compound to be tested (candidate compound) was dissolved in dimethyl sulfoxide (DMSO) and diluted with the culture medium prior to the practical use.\nThe cells (10^6 cells/ml) prepared according to the foregoing method were admixed with the LPS (2 μg/ml) and a compound to be tested (10^−5M), the cells were incubated at 37° C. for two hours and then centrifuged at 1000 xg for 5 minutes. The resulting supernatant of the culture medium was inspected for the level of TNF-α using the human TNF-α-specific ELISA kit. In this connection, it was confirmed that the supernatant obtained by cultivating the cells in the culture medium free of any LPS (control) never included any TNF-α.\nThe rate of the TNF-α production inhibitory effect observed for each candidate compound was determined according to the following equation:\nRate of Inhibition (%)=100×(A−B)/A\nWherein A is the level of TNF-α detected in the supernatant obtained from the culture medium free of any candidate compound and B is the level of TNF-α detected in the supernatant obtained from the culture medium containing a candidate compound."}}, "note": "Counter-ions that a name gives are not always drawn."}
{"smiles": "CC(=O)SC[C@H](Cc1ccccc1)NC(=O)N(CCC(C)C)CCN(C)C", "note": "[Compound 6-8, 1-[(1S)-2-(Acetylthio)-1-benzylethyl]-3-[2-(dimethylamino)ethyl]-3-isopentyl urea]", "values": [{"measurement": "inhibition at 10 µM", "setting": "[1]", "result": 60, "unit": "%"}]}
{"smiles": "CC(C)CCN(CCN)C(=O)N[C@H](CSSC[C@H](Cc1ccc(-c2ccccc2)cc1)NC(=O)N(CCN)CCC(C)C)Cc1ccc(-c2ccccc2)cc1.Cl.Cl", "note": "[Compound 8-2, Bis[(2S)-2-[3-(2-aminoethyl)-3-isopentylureido]-3-(4-biphenylyl)propane]-disulfide di-hydrochloride]", "values": [{"measurement": "Rate of Inhibition (%) of TNF-α production", "setting": "[1]", "result": 66, "unit": "%"}]}
{"smiles": "CC(C)CCN(CCN)C(=O)N[C@H](CSSC[C@H](Cc1ccccc1)NC(=O)N(CCN)CCC(C)C)Cc1ccccc1", "note": "(as salt: hydrochloride) [Compound 8-1, Bis[(2S)-2-[3-(2-aminoethyl)-3-isopentylureido]-3-phenylpropane] Disulfide di-hydrochloride]", "values": [{"measurement": "melting point", "result": "100 °C (dec.)"}]}
{"smiles": "CC(=O)SC[C@H](Cc1ccc(-c2ccccc2)cc1)NC(=O)N(CCC(C)C)CCN(C)C", "note": "[Compound 6-11, 1-[(1S)-2-(Acetylthio)-1-[(4-biphenylyl)methyl]ethyl]-3-[2-(dimethylamino)-ethyl]-3-isopentyl urea]", "values": [{"measurement": "inhibition at 10 µM", "setting": "[1]", "result": 76, "unit": "%"}]}
{"smiles": "CC(=O)SCCN(CCc1ccccc1)C(=O)N[C@@H](Cc1ccccc1)CN(C)C", "note": "[Compound 6-3, 1-[2-(Acetylthio)ethyl]-3-[(1S)-1-benzyl-2-(dimethylamino)ethyl]-1-phenethyl urea]", "values": [{"measurement": "inhibition at 10 µM", "setting": "[1]", "result": 83, "unit": "%"}]}
{"smiles": "CC(C)CCN(CCN)C(=O)N[C@H](CSSC[C@H](Cc1ccccc1)NC(=O)N(CCN)CCC(C)C)Cc1ccccc1", "note": "[Compound 8-1, Bis[(2S)-2-[3-(2-aminoethyl)-3-isopentylureido]-3-phenylpropane] Disulfide di-hydrochloride]", "values": [{"measurement": "inhibition at 10 µM", "setting": "[1]", "result": 81, "unit": "%"}]}
